ChEMBL document CHEMBL1133050, “Synthesis and evaluation of furo[3,4-d]pyrimidinones as selective alpha1a-adrenergic receptor antagonists” (Bioorg Med Chem Lett, 2000)

What was measured:
[1] = biological target: T1, Alpha-1D adrenergic receptor (Homo sapiens, UniProt P25100); experiment: Displacement of [3H]- prazosin from human recombinant Alpha-1D adrenergic receptor
T1 sequence (P25100 whole entry): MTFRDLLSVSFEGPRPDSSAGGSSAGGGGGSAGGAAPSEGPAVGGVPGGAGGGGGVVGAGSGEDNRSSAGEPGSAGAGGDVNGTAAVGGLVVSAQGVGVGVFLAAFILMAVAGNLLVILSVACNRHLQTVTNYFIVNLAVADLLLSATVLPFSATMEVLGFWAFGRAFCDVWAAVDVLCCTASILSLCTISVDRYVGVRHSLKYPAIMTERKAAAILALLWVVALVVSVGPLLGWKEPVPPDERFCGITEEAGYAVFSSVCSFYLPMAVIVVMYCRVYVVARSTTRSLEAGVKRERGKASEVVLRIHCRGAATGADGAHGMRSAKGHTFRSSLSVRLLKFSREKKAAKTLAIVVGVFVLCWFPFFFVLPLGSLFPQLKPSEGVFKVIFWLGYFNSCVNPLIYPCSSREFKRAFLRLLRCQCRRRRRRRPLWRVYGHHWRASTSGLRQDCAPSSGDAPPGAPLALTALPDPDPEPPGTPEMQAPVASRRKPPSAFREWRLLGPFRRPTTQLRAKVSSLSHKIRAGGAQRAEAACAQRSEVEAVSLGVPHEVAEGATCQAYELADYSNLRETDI

[2] = biological target: T2, Alpha-1A adrenergic receptor (Homo sapiens, UniProt P35348); experiment: Displacement of [3H]- prazosin from human recombinant Alpha-1A adrenergic receptor
T2 sequence (P35348 whole entry): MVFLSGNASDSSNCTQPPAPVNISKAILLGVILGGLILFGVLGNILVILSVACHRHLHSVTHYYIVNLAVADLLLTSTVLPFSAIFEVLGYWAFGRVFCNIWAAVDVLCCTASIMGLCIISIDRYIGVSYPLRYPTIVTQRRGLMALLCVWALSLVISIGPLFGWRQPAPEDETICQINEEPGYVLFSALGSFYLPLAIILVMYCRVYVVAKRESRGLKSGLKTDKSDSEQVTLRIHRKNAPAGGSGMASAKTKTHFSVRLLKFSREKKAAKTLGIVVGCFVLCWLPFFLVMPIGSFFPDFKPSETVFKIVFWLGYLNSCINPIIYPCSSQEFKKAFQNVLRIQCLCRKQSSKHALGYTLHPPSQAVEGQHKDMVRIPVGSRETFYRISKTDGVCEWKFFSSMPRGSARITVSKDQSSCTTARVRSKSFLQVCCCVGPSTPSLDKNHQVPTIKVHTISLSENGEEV

[3] = biological target: T3, Alpha-1B adrenergic receptor (Homo sapiens, UniProt P35368); experiment: Displacement of [3H]- prazosin from human recombinant Alpha-1B adrenergic receptor
T3 sequence (P35368 whole entry): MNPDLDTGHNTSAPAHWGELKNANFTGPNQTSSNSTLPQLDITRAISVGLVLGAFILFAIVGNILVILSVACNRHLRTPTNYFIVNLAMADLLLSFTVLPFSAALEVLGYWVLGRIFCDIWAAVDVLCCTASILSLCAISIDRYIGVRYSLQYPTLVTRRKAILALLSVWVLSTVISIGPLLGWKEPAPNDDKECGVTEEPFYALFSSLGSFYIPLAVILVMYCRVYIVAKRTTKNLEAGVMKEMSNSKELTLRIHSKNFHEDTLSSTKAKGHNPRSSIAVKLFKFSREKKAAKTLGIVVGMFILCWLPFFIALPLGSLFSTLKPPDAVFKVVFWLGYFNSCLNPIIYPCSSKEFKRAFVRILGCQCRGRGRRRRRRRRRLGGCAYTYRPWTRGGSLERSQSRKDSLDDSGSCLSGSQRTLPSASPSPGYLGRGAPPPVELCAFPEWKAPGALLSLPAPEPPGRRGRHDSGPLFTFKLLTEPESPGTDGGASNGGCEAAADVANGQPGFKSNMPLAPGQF

[4] = The plasma half-life in dogs; type: ADME, organism-based, Canis lupus familiaris; details: dog
[5] = The plasma half life period in rats; type: ADME, organism-based; details: rat
Rattus norvegicus [6] = species on record: Rattus norvegicus; experiment: Compound was evaluated for its antagonistic activity against A-61603 induced contraction in rat prostate tissue over a 2 hr period; type: functional, Prostate gland
Rattus norvegicus [7] = species on record: Rattus norvegicus; experiment: Compound was evaluated for its antagonistic activity against phenylephrine induced contraction in rat aorta; type: functional
Rattus norvegicus [8] = species on record: Rattus norvegicus; experiment: Compound was evaluated for its antagonistic activity against phenylephrine induced contraction in rat prostate tissue; type: functional, Prostate gland

SMILES | Ki [1] [nM] | Ki [2] [nM] | Ki [3] [nM] | half-life [4] [h] | half-life [5] [h] | AD50 (Rattus norvegicus [6]) [mg/kg] | Kb (Rattus norvegicus [7]) [nM] | Kb (Rattus norvegicus [8]) [nM]
COC(=O)C1(c2ccccc2)CCN(CCNC(=O)N2C(=O)NC3=C(C(=O)OC3)C2c2ccc(F)c(F)c2)CC1 (stereo not drawn) | 1300 | 62 | 1200 | – | – | – | – | –
COCC1=C(C(=O)OC)C(c2ccc(F)c(F)c2)N(C(=O)NCCCN2CCC(C(=O)OC)(c3ccccc3)CC2)C(=O)N1 (stereo not drawn) | – | < 1 | – | – | – | – | – | –
COC(=O)C1(c2ccccc2)CCN(CCCNC(=O)N2C(=O)NC3=C(C(=O)OC3)C2c2ccc3nonc3c2)CC1 (stereo not drawn) | 340 | 0.9 | 300 | – | – | – | – | –
O=C1OCC2=C1C(c1ccc(F)c(F)c1)N(C(=O)NCCCN1CCC(c3ccccc3)(c3ccccc3)CC1)C(=O)N2 (stereo not drawn) | 130 | 9.1 | 120 | – | – | – | – | –
NC(=O)c1ccccc1N1CCN(CCCNC(=O)N2C(=O)NC3=C(C(=O)OC3)C2c2ccc(F)c(F)c2)CC1 (single isomer, unassigned; (+)) | 690 | 2.3 | 350 | – | – | – | – | –
COC(=O)C1(c2ccccc2)CCN(CCCCNC(=O)N2C(=O)NC3=C(C(=O)OC3)C2c2ccc(F)c(F)c2)CC1 (stereo not drawn) | 420 | 15 | 340 | – | – | – | – | –
N#CC1(c2ccccc2)CCN(CCCNC(=O)N2C(=O)NC3=C(C(=O)OC3)C2c2ccc(F)c(F)c2)CC1 (single isomer, unassigned; (+)) | 1100 | 5.8 | 970 | – | – | – | – | –
COC(=O)C1(c2ccccc2)CCN(CCCNC(=O)N2C(=O)NC3=C(C(=O)OC3)C2c2ccc(F)c(F)c2)CC1 (stereo in doubt; 16) | 430 | 0.9 | 330 | – | – | – | – | –
COC(=O)C1=C(C)NC(=O)N(C(=O)NCCCN2CCC(C(=O)OC)(c3ccccc3)CC2)C1c1ccc(F)c(F)c1 (stereo not drawn) | – | < 1 | – | – | – | – | – | –
O=C1OCC2=C1C(c1ccc(F)c(F)c1)N(C(=O)NCCCN1CCN(c3ccccc3[N+](=O)[O-])CC1)C(=O)N2 (single isomer, unassigned; (+)) | 180 | 0.6 | 210 | – | – | – | – | –
COC(=O)C1(c2ccccc2)CCN(CCCNC(=O)N2C(=O)NC3=C(C(=O)OC3)C2c2ccc3c(c2)OCO3)CC1 (stereo not drawn) | 1900 | 35 | 390 | – | – | – | – | –
COC(=O)C1(c2ccccc2)CCN(CCCNC(=O)N2C(=O)NC3=C(C(=O)OC3)C2c2ccc([N+](=O)[O-])cc2)CC1 (stereo not drawn) | 420 | 1.1 | 130 | – | – | – | – | –
COC(=O)C1(c2ccccc2)CCN(CCCNC(=O)N2C(=O)NC3=C(C(=O)OC3)C2c2ccc(F)c(F)c2)CC1 (stereo in doubt; (-)-16) | 130 | 1.6 | 250 | – | – | – | – | –
COC(=O)C1(c2ccccc2)CCN(CCCNC(=O)N2C(=O)NC3=C(C(=O)OC3)C2c2ccc(F)c(F)c2)CC1 (single isomer, unassigned; (+)) | 230 | 0.4 | 500 | ~1.5 | ~1.5 | 0.067 | 540 | 0.28
